Tested on: MV-4-11 cells
Test: Gene expression microarray analysis (Affymetrix PrimeView) and GSEA
Type: cell-based, human
Set-up: RFU PODN (11730768_x_at) / Fold change /veh PODN (11730768_x_at) / RFU LINC00158 (11744669_a_at) / Fold change /veh LINC00158 (11744669_a_at) / RFU DUSP10 (11751237_a_at) / Fold change /veh DUSP10 (11751237_a_at) / RFU ID3 (11757404_x_at) / Fold change /veh ID3 (11757404_x_at) / RFU PLEKHG5 (11737974_s_at) / Fold change /veh PLEKHG5 (11737974_s_at) / RFU LRRC4B (11730491_at) / Fold change /veh LRRC4B (11730491_at) / RFU GIMAP4 (11747438_a_at) / Fold change /veh GIMAP4 (11747438_a_at) / RFU KRT8 (11758183_x_at) / Fold change /veh KRT8 (11758183_x_at) / RFU CNN1 (11734310_a_at) / Fold change /veh CNN1 (11734310_a_at) / RFU VPS37D (11726825_at) / Fold change /veh VPS37D (11726825_at) / RFU C10orf10 (11716522_x_at) / Fold change /veh C10orf10 (11716522_x_at) / RFU KIR2DL2 /// KIR2DL4 /// KIR2DL5A /// KIR2DL5B /// KIR2DS1 /// KIR2DS2 /// KIR2DS3 /// KIR2DS4 /// KIR3DL3 /// KIR3DL3 /// KIR3DS1 (11738374_at) / Fold change /veh KIR2DL2 /// KIR2DL4 /// KIR2DL5A /// KIR2DL5B /// KIR2DS1 /// KIR2DS2 /// KIR2DS3 /// KIR2DS4 /// KIR3DL3 /// KIR3DL3 /// KIR3DS1 (11738374_at) / RFU C1QL1 (11718748_at) / Fold change /veh C1QL1 (11718748_at) / RFU TMPRSS4 (11747572_a_at) / Fold change /veh TMPRSS4 (11747572_a_at) / RFU HAMP (11756126_x_at) / Fold change /veh HAMP (11756126_x_at) / RFU RNFT2 (11725882_a_at) / Fold change /veh RNFT2 (11725882_a_at) / RFU NR4A2 (11747474_a_at) / Fold change /veh NR4A2 (11747474_a_at) / RFU ABCC12 (11746883_a_at) / Fold change /veh ABCC12 (11746883_a_at) / RFU TMEM136 (11760407_x_at) / Fold change /veh TMEM136 (11760407_x_at) / RFU CLDN22 /// WWC2 (11732394_at) / Fold change /veh CLDN22 /// WWC2 (11732394_at) / RFU HLA-DPB1 (11760878_x_at) / Fold change /veh HLA-DPB1 (11760878_x_at) / RFU SPINT1 (11716480_a_at) / Fold change /veh SPINT1 (11716480_a_at) / RFU GAP43 (11754022_s_at) / Fold change /veh GAP43 (11754022_s_at) / RFU A4GNT (11735810_at) / Fold change /veh A4GNT (11735810_at) / RFU PRB3 (11715151_x_at) / Fold change /veh PRB3 (11715151_x_at) / RFU TUBB4B (11761932_at) / Fold change /veh TUBB4B (11761932_at) / RFU CAPN14 (11732068_a_at) / Fold change /veh CAPN14 (11732068_a_at) / RFU TMCC2 (11721928_a_at) / Fold change /veh TMCC2 (11721928_a_at) / RFU IRGQ (11745062_a_at) / Fold change /veh IRGQ (11745062_a_at) / RFU FAM174B (11720279_a_at) / Fold change /veh FAM174B (11720279_a_at) / RFU TMPRSS4 (11748680_a_at) / Fold change /veh TMPRSS4 (11748680_a_at) / RFU FAM212B (11763350_a_at) / Fold change /veh FAM212B (11763350_a_at) / RFU PLEKHG5 (11743358_a_at) / Fold change /veh PLEKHG5 (11743358_a_at) / RFU ZSCAN30 (11745921_a_at) / Fold change /veh ZSCAN30 (11745921_a_at) / RFU CMKLR1 (11741424_a_at) / Fold change /veh CMKLR1 (11741424_a_at) / RFU LOC101060620 /// MAPK8IP1 (11723275_at) / Fold change /veh LOC101060620 /// MAPK8IP1 (11723275_at) / RFU SPTSSB (11747773_x_at) / Fold change /veh SPTSSB (11747773_x_at) / RFU PRSS12 (11739890_at) / Fold change /veh PRSS12 (11739890_at) / RFU BIN1 (11741810_x_at) / Fold change /veh BIN1 (11741810_x_at) / RFU WNT11 (11732464_a_at) / Fold change /veh WNT11 (11732464_a_at) / RFU C10orf10 (11716521_a_at) / Fold change /veh C10orf10 (11716521_a_at) / RFU C5orf56 (11738089_at) / Fold change /veh C5orf56 (11738089_at) / RFU CYB561 (11721691_x_at) / Fold change /veh CYB561 (11721691_x_at) / RFU ANKRD19P (11752326_a_at) / Fold change /veh ANKRD19P (11752326_a_at) / RFU OR2T12 /// OR2T33 /// OR2T8 (11738714_s_at) / Fold change /veh OR2T12 /// OR2T33 /// OR2T8 (11738714_s_at) / RFU VCAN (11748164_a_at) / Fold change /veh VCAN (11748164_a_at) / RFU JSRP1 (11732532_at) / Fold change /veh JSRP1 (11732532_at) / RFU KRTAP10-11 (11738290_x_at) / Fold change /veh KRTAP10-11 (11738290_x_at) / RFU MYO3A (11730013_a_at) / Fold change /veh MYO3A (11730013_a_at) / RFU EBF3 (11725865_a_at) / Fold change /veh EBF3 (11725865_a_at) / RFU CAMK2N1 (11719241_x_at) / Fold change /veh CAMK2N1 (11719241_x_at) / RFU C5orf56 (11738088_a_at) / Fold change /veh C5orf56 (11738088_a_at) / RFU OLFML3 (11715873_a_at) / Fold change /veh OLFML3 (11715873_a_at) / RFU LOC100653217 /// NTM (11731650_a_at) / Fold change /veh LOC100653217 /// NTM (11731650_a_at) / RFU MAPK11 (11762145_a_at) / Fold change /veh MAPK11 (11762145_a_at) / RFU FIZ1 (11724087_x_at) / Fold change /veh FIZ1 (11724087_x_at) / RFU OASL (11726364_x_at) / Fold change /veh OASL (11726364_x_at) / RFU SOX15 (11748057_x_at) / Fold change /veh SOX15 (11748057_x_at) / RFU CD79A (11719716_a_at) / Fold change /veh CD79A (11719716_a_at) / RFU HIST1H1D (11736915_at) / Fold change /veh HIST1H1D (11736915_at) / RFU CASKIN2 (11723855_a_at) / Fold change /veh CASKIN2 (11723855_a_at) / RFU LOC730098 (11760151_x_at) / Fold change /veh LOC730098 (11760151_x_at) / RFU OR4N2 (11742367_at) / Fold change /veh OR4N2 (11742367_at) / RFU PRRT2 (11749266_a_at) / Fold change /veh PRRT2 (11749266_a_at) / RFU SNX32 (11753110_a_at) / Fold change /veh SNX32 (11753110_a_at) / RFU CDHR5 (11726645_a_at) / Fold change /veh CDHR5 (11726645_a_at) / RFU RCAN1 (11760418_a_at) / Fold change /veh RCAN1 (11760418_a_at) / RFU FAM167A (11723789_a_at) / Fold change /veh FAM167A (11723789_a_at) / RFU FAM26E (11764081_at) / Fold change /veh FAM26E (11764081_at) / RFU ISYNA1 (11749810_s_at) / Fold change /veh ISYNA1 (11749810_s_at) / RFU ACY1 (11761880_at) / Fold change /veh ACY1 (11761880_at) / RFU 11764098_at / Fold change /veh 11764098_at / RFU SAMD14 (11745864_x_at) / Fold change /veh SAMD14 (11745864_x_at) / RFU NPB (11741838_a_at) / Fold change /veh NPB (11741838_a_at) / RFU TMPRSS6 (11731388_a_at) / Fold change /veh TMPRSS6 (11731388_a_at) / RFU KRTAP10-2 (11738614_at) / Fold change /veh KRTAP10-2 (11738614_at) / RFU ARHGAP8 /// PRR5-ARHGAP8 (11727945_x_at) / Fold change /veh ARHGAP8 /// PRR5-ARHGAP8 (11727945_x_at) / RFU KRTAP5-7 /// NADSYN1 (11734609_at) / Fold change /veh KRTAP5-7 /// NADSYN1 (11734609_at) / RFU RASL12 (11751679_a_at) / Fold change /veh RASL12 (11751679_a_at) / RFU CDKN2B (11736163_a_at) / Fold change /veh CDKN2B (11736163_a_at) / RFU PRF1 (11729649_at) / Fold change /veh PRF1 (11729649_at) / RFU, ZNF638 /// ZNF638-IT1 / Fold change vs veh, ZNF638 /// ZNF638-IT1 / RFU, PANK3 / Fold change vs veh, PANK3 / RFU, SH3YL1 / Fold change vs veh, SH3YL1 / RFU, ZEB2 / Fold change vs veh, ZEB2 / RFU, NRIP1 / Fold change vs veh, NRIP1 / RFU, PTTG1IP / Fold change vs veh, PTTG1IP / RFU, CAPN2 / Fold change vs veh, CAPN2 / RFU, MED14 / Fold change vs veh, MED14 / RFU, SNORA58 / Fold change vs veh, SNORA58 / RFU, C1orf63 / Fold change vs veh, C1orf63 / RFU, LRRFIP1 / Fold change vs veh, LRRFIP1 / RFU, NDUFAF7 / Fold change vs veh, NDUFAF7 / RFU, SLC12A2 / Fold change vs veh, SLC12A2 / RFU, IBTK / Fold change vs veh, IBTK / RFU, ESF1 / Fold change vs veh, ESF1 / Fold change vs veh, TMEM50B / RFU, TAOK1 / Fold change vs veh, TAOK1 / RFU, ACBD3 / Fold change vs veh, ACBD3 / RFU, TMA16 / Fold change vs veh, TMA16 / RFU, RWDD3 / Fold change vs veh, RWDD3 / RFU, BCAT1 / Fold change vs veh, BCAT1 / RFU, EDEM3 / Fold change vs veh, EDEM3 / RFU, TMEM33 / Fold change vs veh, TMEM33 / RFU, WDR75 / Fold change vs veh, WDR75 / RFU, AHCTF1 / Fold change vs veh, AHCTF1 / RFU, TFRC / Fold change vs veh, TFRC / RFU, ZDHHC17 / Fold change vs veh, ZDHHC17 / RFU, NOM1 / Fold change vs veh, NOM1 / RFU, ARL8B / Fold change vs veh, ARL8B / RFU, ZBTB11 / Fold change vs veh, ZBTB11 / RFU, TAMM41 / Fold change vs veh, TAMM41 / RFU, KIAA1704 /// LOC100996395 / Fold change vs veh, KIAA1704 /// LOC100996395 / RFU, ING1 / Fold change vs veh, ING1 / RFU, TRMT61B / Fold change vs veh, TRMT61B / RFU, FUBP3 / Fold change vs veh, FUBP3 / RFU, TP53 / Fold change vs veh, TP53 / RFU, TNKS2 / Fold change vs veh, TNKS2 / RFU, ZFP14 / Fold change vs veh, ZFP14 / RFU, ACTR2 / Fold change vs veh, ACTR2 / RFU, PPP3R1 / Fold change vs veh, PPP3R1 / RFU, PIK3R1 / Fold change vs veh, PIK3R1 / RFU, HNRNPA1 / Fold change vs veh, HNRNPA1 / RFU, RNF170 / Fold change vs veh, RNF170 / RFU, ZNF28 / Fold change vs veh, ZNF28 / RFU, RNGTT / Fold change vs veh, RNGTT / RFU, OGT / Fold change vs veh, OGT / RFU, BRD1 / Fold change vs veh, BRD1 / RFU, MARS / Fold change vs veh, MARS / RFU, ZNF655 / Fold change vs veh, ZNF655 / RFU, FAHD1 / Fold change vs veh, FAHD1 / RFU, BDP1 / Fold change vs veh, BDP1 / RFU, LRRCC1 / Fold change vs veh, LRRCC1 / RFU, ARID1A / Fold change vs veh, ARID1A / RFU, ZNF146 / Fold change vs veh, ZNF146 / RFU, ZNF330 / Fold change vs veh, ZNF330 / RFU, GPN3 / Fold change vs veh, GPN3 / RFU, C9orf123 / Fold change vs veh, C9orf123 / RFU, N4BP2L2 / Fold change vs veh, N4BP2L2 / RFU, ARFIP1 / Fold change vs veh, ARFIP1 / RFU, FAM179B / Fold change vs veh, FAM179B / RFU, BCL10 / Fold change vs veh, BCL10 / RFU, UHRF1BP1L / Fold change vs veh, UHRF1BP1L / RFU, BET1 / Fold change vs veh, BET1 / RFU, CNOT2 / Fold change vs veh, CNOT2 / RFU, ZNF268 / Fold change vs veh, ZNF268 / Fold change vs veh, ZNF507 / RFU, DGCR2 / Fold change vs veh, DGCR2 / RFU, WDSUB1 / Fold change vs veh, WDSUB1 / Fold change vs veh, HSP90B1 /// MIR3652 / RFU, ADSS / Fold change vs veh, ADSS / RFU, GK / Fold change vs veh, GK / RFU, ZNF148 / Fold change vs veh, ZNF148 / RFU, TAF9 / Fold change vs veh, TAF9 / RFU, SLC1A5 / Fold change vs veh, SLC1A5 / RFU, SLMO2 / Fold change vs veh, SLMO2 / RFU, ABCC4 / Fold change vs veh, ABCC4 / RFU, LOC101060439 /// RAP1B / Fold change vs veh, LOC101060439 /// RAP1B / RFU, RFX7 / Fold change vs veh, RFX7 / RFU, GTPBP10 / Fold change vs veh, GTPBP10 / RFU, CNEP1R1 / Fold change vs veh, CNEP1R1 / RFU, BIVM-ERCC5 /// ERCC5 / Fold change vs veh, BIVM-ERCC5 /// ERCC5 / RFU, ILF3 / Fold change vs veh, ILF3 / RFU 11762660_at / Fold change /veh 11762660_at / RFU VCAN (11757783_s_at) / Fold change /veh VCAN (11757783_s_at) / RFU DDX43 (11728927_at) / Fold change /veh DDX43 (11728927_at) / RFU KRT8 (11758188_x_at) / Fold change /veh KRT8 (11758188_x_at) / RFU NKD1 (11759106_at) / Fold change /veh NKD1 (11759106_at) / RFU SRD5A1 (11742802_a_at) / Fold change /veh SRD5A1 (11742802_a_at) / RFU TPSAB1 /// TPSB2 (11721975_s_at) / Fold change /veh TPSAB1 /// TPSB2 (11721975_s_at) / RFU GSTM3 (11746129_a_at) / Fold change /veh GSTM3 (11746129_a_at) / RFU IL23R (11737362_x_at) / Fold change /veh IL23R (11737362_x_at) / RFU TMEM51 (11727254_a_at) / Fold change /veh TMEM51 (11727254_a_at) / RFU PIWIL2 (11732686_x_at) / Fold change /veh PIWIL2 (11732686_x_at) / RFU ORM1 (11744905_x_at) / Fold change /veh ORM1 (11744905_x_at) / RFU CCDC152 (11743942_at) / Fold change /veh CCDC152 (11743942_at) / RFU ECM1 (11717891_a_at) / Fold change /veh ECM1 (11717891_a_at) / RFU IL23R (11748794_a_at) / Fold change /veh IL23R (11748794_a_at) / RFU TNFAIP8L3 (11732012_x_at) / Fold change /veh TNFAIP8L3 (11732012_x_at) / RFU MBOAT4 (11741988_at) / Fold change /veh MBOAT4 (11741988_at) / RFU 11764193_at / Fold change /veh 11764193_at / RFU TMEM53 (11763286_at) / Fold change /veh TMEM53 (11763286_at) / RFU MAGEB2 (11727129_at) / Fold change /veh MAGEB2 (11727129_at) / RFU TMEM200A (11744735_a_at) / Fold change /veh TMEM200A (11744735_a_at) / RFU CCDC152 (11751479_a_at) / Fold change /veh CCDC152 (11751479_a_at) / RFU FAM211A (11726209_a_at) / Fold change /veh FAM211A (11726209_a_at) / RFU RGS16 (11746705_a_at) / Fold change /veh RGS16 (11746705_a_at) / RFU VCAN (11755009_s_at) / Fold change /veh VCAN (11755009_s_at) / RFU RHOB (11743442_s_at) / Fold change /veh RHOB (11743442_s_at) / RFU RGS16 (11720943_a_at) / Fold change /veh RGS16 (11720943_a_at) / RFU RGS16 (11720944_at) / Fold change /veh RGS16 (11720944_at) / RFU, VPS4B / Fold change vs veh, VPS4B / RFU, CREB1 / Fold change vs veh, CREB1 / RFU, DNAJC13 / Fold change vs veh, DNAJC13 / RFU, GNAQ / Fold change vs veh, GNAQ / RFU, CDK5R1 / Fold change vs veh, CDK5R1 / RFU, ZRANB3 / Fold change vs veh, ZRANB3 / RFU, CUL4A / Fold change vs veh, CUL4A / RFU, CCNY / Fold change vs veh, CCNY / RFU, UFL1 / Fold change vs veh, UFL1 / RFU, COG3 / Fold change vs veh, COG3 / RFU, DIAPH2 / Fold change vs veh, DIAPH2 / RFU, SKA2 / Fold change vs veh, SKA2 / RFU, AFF3 / Fold change vs veh, AFF3 / RFU, LMF1 / Fold change vs veh, LMF1 / RFU, IPO11 / Fold change vs veh, IPO11 / RFU, DFFB / Fold change vs veh, DFFB / RFU, FOXP1 / Fold change vs veh, FOXP1 / RFU, CARD8 / Fold change vs veh, CARD8 / RFU, STRN3 / Fold change vs veh, STRN3 / RFU, ADK / Fold change vs veh, ADK / RFU, RASSF2 / Fold change vs veh, RASSF2 / RFU, WIPF1 / Fold change vs veh, WIPF1 / RFU, LARP1B / Fold change vs veh, LARP1B / RFU, RASA1 / Fold change vs veh, RASA1 / RFU, RB1 / Fold change vs veh, RB1 / RFU, PPFIA1 / Fold change vs veh, PPFIA1 / RFU, MAT2A / Fold change vs veh, MAT2A / RFU, CCT5 / Fold change vs veh, CCT5 / RFU, WDR92 / Fold change vs veh, WDR92 / RFU, CUX1 / Fold change vs veh, CUX1 / RFU, TTC7A / Fold change vs veh, TTC7A / RFU, TMEM135 / Fold change vs veh, TMEM135 / RFU, DEPTOR / Fold change vs veh, DEPTOR / RFU, CPM / Fold change vs veh, CPM / RFU, DNAJB6 / Fold change vs veh, DNAJB6 / RFU, CACNA2D3 / Fold change vs veh, CACNA2D3 / RFU, DTX4 / Fold change vs veh, DTX4 / RFU, TFCP2 / Fold change vs veh, TFCP2 / RFU, GMCL1 /// GMCL1P1 / Fold change vs veh, GMCL1 /// GMCL1P1 / RFU, AEBP2 / Fold change vs veh, AEBP2 / RFU, SNHG1 /// SNORD22 /// SNORD25 /// SNORD26 /// SNORD27 /// SNORD28 /// SNORD29 /// SNORD31 / Fold change vs veh, SNHG1 /// SNORD22 /// SNORD25 /// SNORD26 /// SNORD27 /// SNORD28 /// SNORD29 /// SNORD31 / Fold change (Aza/veh), C12orf56 (ProbeSet 11735607_a_at) / Fold change (ACY-1035/veh), C12orf56 (ProbeSet 11735607_a_at) / Fold change (Aza/veh), FGFR1OP (ProbeSet 11751329_s_at) / Fold change (ACY-1035/veh), FGFR1OP (ProbeSet 11751329_s_at) / Fold change (Aza/veh), VPS36 (ProbeSet 11739960_a_at) / Fold change (ACY-1035/veh), VPS36 (ProbeSet 11739960_a_at) / RFU SYPL1 (11715823_x_at) / Fold change /veh SYPL1 (11715823_x_at) / RFU IGFBP7 (11715501_s_at) / Fold change /veh IGFBP7 (11715501_s_at) / RFU REEP3 (11722064_at) / Fold change /veh REEP3 (11722064_at) / RFU IGLL1 (11728026_x_at) / Fold change /veh IGLL1 (11728026_x_at): dose or concentration left out as unconfirmed
Conditions: ProbeSet 11724877_a_at; LIST D

Nc1ncn([C@@H]2O[C@H](CO)[C@@H](O)[C@H]2O)c(=O)n1 [azacitidine]
RFU, AEBP2: 23.96 RFU

— PMC5218480 (PLoS ONE, 2017)
